Measurements reported in patent publication US11459338B2, “Heterocyclic compounds as PRMT5 inhibitors” (JUBILANT EPISCRIBE LLC, priority 2018, dated 2022).
Like-named read-outs stand apart in the source and are kept apart here. One block for each molecule: values may come before it.

What was measured:
[1] = tested on: Symmetric di-methyl arginine in Z-138 cells; assay: Z-138 methylation assay, ELISA for detection of symmetric di-methyl arginine; assay type: cell-based; settings: Homo sapiens
Experimental: General reagents. […] Iscove's Modified Dulbecco's Medium (IMDM), Horse serum, penicillin-streptomycin, PBS and TMB-ELISA substrate solution were purchased from ThermoFisher Scientific. Symmetric di-methyl arginine antibody was purchased from Cell Signaling Technologies.Anti-SNRPD3/SmD3 antibody was purchased from Sigma-Aldrich.
ELISA for detection of Symmetric di-methyl arginine. […] A compound source plate was prepared by performing ten-point 3-fold dilution in DMSO, such that the final top concentration of the compound was 10 μM, and DMSO was 0.3%. The total volume of compounds added was 20 μL. The cells were incubated for 96 h at 37° C., 5% CO2. Z-138 cells were directly lysed in media with 3× Lysis Buffer (1×: 10 mM HEPES pH7.9, 5 mM MgCl2, 1M NaCl, 0.25M Sucrose, 1% Triton X-100, 1 mM PMSF, Protease & Phosphatase inhibitors). […] Plates were incubated at room temperature for a minimum of 3 h and then washed with PBS-Tween 20 (0.05%). The plates were blocked with 5% BSA at room temperature for 1 h, washed with PBS-Tween 20 and incubated with primary antibody at 4 C overnight.

Z-138 cells = assay: Z-138 long term proliferation assay (Cell Titer Glo); assay type: cell-based; settings: Homo sapiens; for GI50: 192 h, Z-138 cells, cell viability, day 8, read-out: PRMT5 Z138 GI50 Day 8 μM; for IC50: Z-138, 192 h, summary of Table 1, read-out: IC50 value (all the three assays): Z138 GI50 Day 8
In short: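 Z-138 cells exposed to ten-point 3-fold dilutions (top 10 μM, 0.3% DMSO) for 96 h at 37° C., 5% CO2, then re-dosed for four more days.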

PRMT5/MEP50 = molecular target: T1, PRMT5/MEP50 (Homo sapiens, UniProt O14744); assay: PRMT5/MEP50 enzyme assay on peptide substrates (3H-SAM Flashplate); assay type: biochemical; settings: PRMT5/MEP50 10 nM, H4 1-15aa peptide 100 nM, 3H-SAM 1 μM
T1 construct: Full-length human PRMT5 (NP_006100)

[2] = Z-138 cells, 96 h (day 4), read-out: PRMT5 Z138 SDMA ELISA Day 4 μM
[3] = Z-138, 96 h, summary of Table 1, read-out: IC50 value (all the three assays): Z138 SDMA ELISA Day 4

T1 sequence (O14744 whole entry): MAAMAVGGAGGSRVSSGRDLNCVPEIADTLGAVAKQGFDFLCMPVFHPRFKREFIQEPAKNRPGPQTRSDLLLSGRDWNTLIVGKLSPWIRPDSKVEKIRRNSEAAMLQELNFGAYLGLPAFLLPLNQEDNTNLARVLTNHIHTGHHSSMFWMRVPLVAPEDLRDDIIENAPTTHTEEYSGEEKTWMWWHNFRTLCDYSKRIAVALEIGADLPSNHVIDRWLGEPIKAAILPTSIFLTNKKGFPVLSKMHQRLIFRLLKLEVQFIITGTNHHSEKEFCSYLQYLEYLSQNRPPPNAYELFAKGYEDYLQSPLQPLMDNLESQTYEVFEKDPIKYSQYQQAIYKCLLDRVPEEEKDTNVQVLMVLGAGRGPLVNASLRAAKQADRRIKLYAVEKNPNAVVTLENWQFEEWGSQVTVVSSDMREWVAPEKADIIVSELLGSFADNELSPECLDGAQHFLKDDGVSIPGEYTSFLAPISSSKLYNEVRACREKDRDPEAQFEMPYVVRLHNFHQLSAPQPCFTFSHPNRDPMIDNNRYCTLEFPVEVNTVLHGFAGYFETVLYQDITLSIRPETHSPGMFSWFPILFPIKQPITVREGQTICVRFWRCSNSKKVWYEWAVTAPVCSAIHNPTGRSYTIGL
T1 sequence (Q9BQA1 whole entry partner): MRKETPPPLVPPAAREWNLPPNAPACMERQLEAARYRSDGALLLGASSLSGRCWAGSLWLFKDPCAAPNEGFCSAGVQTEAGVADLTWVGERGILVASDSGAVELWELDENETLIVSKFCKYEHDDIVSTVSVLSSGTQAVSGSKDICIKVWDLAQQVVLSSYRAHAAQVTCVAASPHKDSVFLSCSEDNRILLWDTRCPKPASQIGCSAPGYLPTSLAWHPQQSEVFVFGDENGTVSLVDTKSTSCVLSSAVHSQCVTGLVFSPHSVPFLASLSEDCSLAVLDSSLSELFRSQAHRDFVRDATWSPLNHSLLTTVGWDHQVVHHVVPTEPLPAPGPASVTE

Structure (SMILES): O=C(NC[C@H](O)CN1CCc2ccccc2C1)c1cn2c(n1)COC(c1ccccc1)C2 (stereo partly drawn) [Example 112, N—((S)-3-(3,4-dihydroisoquinolin-2(1H)-yl)-2-hydroxypropyl)-6-phenyl-5,6-dihydro-8H-imidazo[2,1-c][1,4]oxazine-2-carboxamide]
IC50 [1, 2]: 10 to 1000 nM | GI50 (Z-138 cells): 1000 to 5000 nM | IC50 (PRMT5/MEP50): 1000 to 5000 nM

Structure (SMILES): CC(C)N1CCn2cc(C(=O)NCC(O)CN3CCc4ccccc4C3)nc2C1 (stereo not drawn) [Example 113, N-(3-(3,4-dihydroisoquinolin-2(1H)-yl)-2-hydroxypropyl)-7-isopropyl-5,6,7,8-tetrahydroimidazo [1,2-a] pyrazine-2-carboxamide]
IC50 [1, 2]: 1000 to 5000 nM | GI50 (Z-138 cells): > 5000 nM | IC50 (PRMT5/MEP50): > 5000 nM

Structure (SMILES): O=C(NC[C@H](O)CN1CCc2ccccc2C1)c1cn2c(n1)CCC(C(F)(F)F)C2 (stereo partly drawn) [Example 114, N—((S)-3-(3,4-dihydroisoquinolin-2(1H)-yl)-2-hydroxypropyl)-6-(trifluoromethyl)-5,6,7,8-tetrahydroimidazo[1,2-a]pyridine-2-carboxamide]
IC50 [1, 2]: 10 to 1000 nM | GI50 (Z-138 cells): 10 to 1000 nM | IC50 (PRMT5/MEP50): 1000 to 5000 nM

Structure (SMILES): O=C(NC[C@H](O)CN1CCc2ccccc2C1)c1cn2c(n1)CCC(c1ccc(F)cc1)C2 (stereo partly drawn) [Example 115, N—((S)-3-(3,4-dihydroisoquinolin-2(1H)-yl)-2-hydroxypropyl)-6-(4-fluorophenyl)-5,6,7,8-tetrahydroimidazo[1,2-a]pyridine-2-carboxamide]
IC50 [1, 3]: 10 to 1000 nM | IC50 [1, 2]: 10 to 1000 nM | GI50 (Z-138 cells): 10 to 1000 nM | IC50 (Z-138 cells): 10 to 1000 nM | IC50 (PRMT5/MEP50): 10 to 1000 nM

Structure (SMILES): O=C(NC[C@H](O)CN1CCc2ccccc2C1)c1cn2c(n1)COC(c1ccc(F)cc1)C2 (stereo partly drawn) [Example 116, N—((S)-3-(3,4-dihydroisoquinolin-2(1H)-yl)-2-hydroxypropyl)-6-(4-fluorophenyl)-5,6-dihydro-8H-imidazo[2,1-c][1,4]oxazine-2-carboxamide]
IC50 [1, 3]: 10 to 1000 nM | IC50 [1, 2]: 10 to 1000 nM | GI50 (Z-138 cells): 10 to 1000 nM | IC50 (Z-138 cells): 10 to 1000 nM | IC50 (PRMT5/MEP50): 10 to 1000 nM

Second part, led by results:

IC50 [1, 3]: 10 to 1000 nM | IC50 [1, 2]: 10 to 1000 nM | IC50 (PRMT5/MEP50): 10 to 1000 nM
Structure (SMILES): O=C(NC[C@H](O)CN1CCc2ccccc2C1)c1cn2c(n1)CC[C@@H](C(F)(F)F)C2 [Example 121A, (R)—N—((S)-3-(3,4-dihydroisoquinolin-2(1H)-yl)-2-hydroxypropyl)-6-(trifluoromethyl)-5,6,7,8-tetrahydroimidazo[1,2-a]pyridine-2-carboxamide]
GI50 (Z-138 cells): 10 to 1000 nM | IC50 (Z-138 cells): 10 to 1000 nM

IC50 [1, 2]: 10 to 1000 nM | IC50 (PRMT5/MEP50): 1000 to 5000 nM
Structure (SMILES): O=C(NC[C@H](O)CN1CCc2ccccc2C1)c1cn2c(n1)CC[C@H](C(F)(F)F)C2 [Example 121B, (S)—N—((S)-3-(3,4-dihydroisoquinolin-2(1H)-yl)-2-hydroxypropyl)-6-(trifluoromethyl)-5,6,7,8-tetrahydroimidazo[1,2-a]pyridine-2-carboxamide]
GI50 (Z-138 cells): 10 to 1000 nM
